Experimental data published in article PMC8273886 (Journal of Medicinal Chemistry, 2021).
Values joined by “and” are separate entries in the source; they are usually repeats but may differ in a detail not shown here. Identical values can stand only once. “Also recorded” adds a separate entry of the source. Bridge positions count the residues as written; N and C are the ends. Square brackets hold non-standard residues; d marks the D form. Peptide text beside a SMILES is read from it.

Key:
[1] = Peptide stability in simulated gastric fluid; format: in vitro ADME; conditions: SGF pH 1.2 with pepsin, 37 °C
[2] = molecular target: T1, mouse KOR (Mus musculus, UniProt P33534); test: Functional cAMP assay; format: cell-based; conditions: for KOR activation in cAMP assay (in words): HEK293 cells stably expressing mouse KOR; for Emax: normalized to dyn A 1–13 = 100%, read-out: efficacy cAMP Emax ± SD
[3] = molecular target: T1, mouse KOR; test: Radioligand competition binding assay ([3H]-diprenorphine displacement); conditions: 1 nM [3H]-diprenorphine, HEK293 cell membranes stably expressing mouse KOR; read-out: affinity Ki ± SD
[4] = molecular target: T2, mouse KOR-EGFP and β-arrestin-2-nano-luciferase (Mus musculus, UniProt P33534); test: BRET β-arrestin-2 recruitment assay; format: cell-based; conditions: normalized to maximum recruitment of dyn A 1–13
T2 construct: expressed in transfected cells; host or cells: HEK293 (transient, jetPRIME)

[5] = test system: motor coordination in mice; conditions: mouse, in vivo, ip, 5 mg/kg
[6] = test system: colonic nociceptors from CVH mice; test: Ex vivo assessment of colonic nociceptor mechanosensitivity; parameters: species or system mouse
Description: Single-unit extracellular recordings from splanchnic colonic afferent nerves were performed as previously described.[42],[43],[45],[46],[78] […] The tissue was transferred to ice-cold Krebs solution, and after further dissection, the distal colon was opened longitudinally and pinned flat with its mucosal side up in a specialized, SYLGARD 184-lined (Dow Corning Corp., Midland, MI) organ bath consisting of two adjacent, clear acrylic compartments (Danz Instrument Service, Adelaide, South Australia, Australia). The neurovascular bundle containing the splanchnic nerve was extended from the tissue compartment and laid onto a mirror in the recording compartment. A movable wall with a small “mouse hole” was lowered into position to allow passage of the nerves, and the recording chamber was filled with paraffin oil. The colonic compartment was superfused with a modified Krebs solution (117.9 mM NaCl, 4.7 mM KCl, 25 mM NaHCO3, 1.3 mM NaH2PO4, 1.2 mM MgSO4(H2O)7, 2.5 mM CaCl2, and 11.1 mM D-glucose) and gassed with carbogen (95% O2 and 5% CO2) at a temperature of 34 °C. Smooth muscle activity and endogenous prostaglandins were suppressed by the addition of the L-type calcium channel antagonist nifedipine (1 μM) and prostaglandin synthesis inhibitor indomethacin (3 μM), respectively. […]

SMILES	Emax [2]	Ki [3]	further results
CC[C@H](C)[C@H](NC(=O)[C@H](CCCN=C(N)N)NC(=O)[C@H](CCCN=C(N)N)NC(=O)[C@H](CC(C)C)NC(=O)[C@H](Cc1ccccc1)NC(=O)CNC(=O)CNC(=O)[C@@H](N)Cc1ccc(O)cc1)C(=O)N[C@@H](CCCN=C(N)N)C(=O)N1CCC[C@H]1C(=O)N[C@@H](CCCCN)C(=O)N[C@@H](CC(C)C)C(=O)N[C@@H](CCCCN)C(N)=O [dyn A 1–13]	–	–	degradation in simulated gastric fluid (in words) [1]: fully degraded after 15 min
CC[C@H](C)[C@@H]1NC(=O)[C@H](CCCNC(=N)N)NC(=O)[C@H](CCCNC(=N)N)NC(=O)[C@H](CC(C)C)NC(=O)[C@H](Cc2ccccc2)NC(=O)CNC(=O)CNC(=O)[C@H](Cc2ccc(O)cc2)NC(=O)[C@@H]2CSSC[C@H](NC(=O)[C@H](CCCCN)NC(=O)[C@H](CC(C)C)NC(=O)[C@H](CCCCN)NC(=O)[C@@H]3CCCN3C(=O)[C@H](CCCNC(=N)N)NC1=O)C(=O)N[C@@H](Cc1ccccc1)C(=O)N1CCC[C@H]1C(=O)N[C@@H](CC(=O)O)C(=O)NCC(=O)N[C@@H](CCCNC(=N)N)C(=O)N2 [helianorphin-1]	106 ± 8.4%	–	KOR activation in cAMP assay (in words) [2]: fully activated the receptor
CC[C@H](C)[C@@H]1NC(=O)[C@H](CCCNC(=N)N)NC(=O)[C@H](CCCNC(=N)N)NC(=O)[C@H](CC(C)C)NC(=O)[C@H](Cc2ccccc2)NC(=O)CNC(=O)CNC(=O)[C@H](Cc2ccc(O)cc2)NC(=O)[C@@H]2CSSC[C@H](NC(=O)[C@H](CCCCN)NC(=O)[C@H](CC(C)C)NC(=O)[C@H](CCCCN)NC(=O)[C@@H]3CCCN3C(=O)[C@H](CCCNC(=N)N)NC1=O)C(=O)N[C@@H]([C@@H](C)O)C(=O)N[C@@H](CCCCN)C(=O)N[C@@H](CO)C(=O)N[C@@H]([C@@H](C)CC)C(=O)N1CCC[C@H]1C(=O)N1CCC[C@H]1C(=O)N[C@@H]([C@@H](C)CC)C(=O)N2 [helianorphin-2] (cyclo(CTKSIPPICYGGFLRRIRPKLK); disulfide 1-9)	102 ± 10%	–	KOR activation in cAMP assay (in words) [2]: fully activated the receptor
CC[C@H](C)[C@@H]1NC(=O)[C@H](CCCNC(=N)N)NC(=O)[C@H](CCCNC(=N)N)NC(=O)[C@H](CC(C)C)NC(=O)[C@H](Cc2ccccc2)NC(=O)CNC(=O)CNC(=O)[C@H](Cc2ccc(O)cc2)NC(=O)[C@@H]2CSSC[C@H](NC1=O)C(=O)N[C@@H](Cc1ccccc1)C(=O)N1CCC[C@H]1C(=O)N[C@@H](CC(=O)O)C(=O)NCC(=O)N[C@@H](CCCNC(=N)N)C(=O)N2 [helianorphin-3]	85.1 ± 1.8%	–	–
CC[C@H](C)[C@@H]1NC(=O)[C@H](CCCNC(=N)N)NC(=O)[C@H](CCCNC(=N)N)NC(=O)[C@H](CC(C)C)NC(=O)[C@H](Cc2ccccc2)NC(=O)CNC(=O)CNC(=O)[C@H](Cc2ccc(O)cc2)NC(=O)[C@@H]2CSSC[C@H](NC1=O)C(=O)N[C@@H]([C@@H](C)O)C(=O)N[C@@H](CCCCN)C(=O)N[C@@H](CO)C(=O)N[C@@H]([C@@H](C)CC)C(=O)N1CCC[C@H]1C(=O)N1CCC[C@H]1C(=O)N[C@@H]([C@@H](C)CC)C(=O)N2 [helianorphin-4] (cyclo(CTKSIPPICYGGFLRRI); disulfide 1-9)	87.8 ± 33%	–	–
CC[C@H](C)[C@@H]1NC(=O)[C@H](CCCNC(=N)N)NC(=O)[C@H](CC(C)C)NC(=O)[C@H](Cc2ccccc2)NC(=O)CNC(=O)CNC(=O)[C@H](Cc2ccc(O)cc2)NC(=O)[C@@H]2CSSC[C@H](NC1=O)C(=O)N[C@@H](Cc1ccccc1)C(=O)N1CCC[C@H]1C(=O)N[C@@H](CC(=O)O)C(=O)NCC(=O)N[C@@H](CCCNC(=N)N)C(=O)N2 [helianorphin-5] (cyclo(CFPDGRCYGGFLRI); disulfide 1-7)	–	> 10 µM	–
CC(C)C[C@@H]1NC(=O)[C@H](Cc2ccccc2)NC(=O)CNC(=O)CNC(=O)[C@H](Cc2ccc(O)cc2)NC(=O)[C@H]([C@@H](C)O)NC(=O)[C@@H]2CSSC[C@H](NC(=O)[C@H](CCCNC(=N)N)NC1=O)C(=O)N[C@@H](Cc1ccccc1)C(=O)N1CCC[C@H]1C(=O)N[C@@H](CC(=O)O)C(=O)NCC(=O)N[C@@H](CCCNC(=N)N)C(=O)N2 [helianorphin-6] (cyclo(CFPDGRCTYGGFLR); disulfide 1-7)	–	> 10 µM	–
CC[C@H](C)[C@@H]1NC(=O)[C@@H]2CCCN2C(=O)[C@@H]2CCCN2C(=O)[C@H]([C@@H](C)CC)NC(=O)[C@H](CO)NC(=O)[C@H](C)NC(=O)[C@H]([C@@H](C)O)NC(=O)[C@@H]2CSSC[C@H](NC1=O)C(=O)N[C@@H](Cc1ccc(O)cc1)C(=O)NCC(=O)NCC(=O)N[C@@H](Cc1ccccc1)C(=O)N[C@@H](CC(C)C)C(=O)N[C@@H](CCCNC(=N)N)C(=O)N2 [helianorphin-7] (cyclo(ASIPPICYGGFLRCT); disulfide 7-14)	–	> 10 µM	–
CC[C@H](C)[C@@H]1NC(=O)[C@@H]2CCCN2C(=O)[C@@H](CCCCN)NC(=O)[C@@H](CC(C)C)NC(=O)[C@@H](Cc2ccccc2)NC(=O)[C@@H](Cc2ccccc2)NC(=O)[C@H]([C@@H](C)O)NC(=O)[C@@H]2CSSC[C@H](NC1=O)C(=O)N[C@@H](Cc1ccccc1)C(=O)N1CCC[C@H]1C(=O)N[C@@H](CC(=O)O)C(=O)NCC(=O)N[C@@H](CCCNC(=N)N)C(=O)N2 [helianorphin-10] (cyclo(CFPDGRCT[dF][dF][dL][dK]PI); disulfide 1-7)	–	> 10 µM	–
CCCC[C@H]1NC(=O)[C@@H](Cc2ccccc2)NC(=O)[C@@H](Cc2ccccc2)NC(=O)[C@H]([C@@H](C)O)NC(=O)[C@@H]2CSSC[C@H](NC(=O)[C@H]([C@@H](C)CC)NC(=O)[C@@H]3CCCN3C(=O)[C@@H](CCCNC(=N)N)NC1=O)C(=O)N[C@@H](Cc1ccccc1)C(=O)N1CCC[C@H]1C(=O)N[C@@H](CC(=O)O)C(=O)NCC(=O)N[C@@H](CCCNC(=N)N)C(=O)N2 [helianorphin-12]	117 ± 12%	–	KOR activation in cAMP assay (in words) [2]: fully activates the KOR
CC[C@H](C)[C@@H]1NC(=O)[C@@H]2CSSC[C@H](NC(=O)[C@H](CCCCN)NC(=O)[C@H](CC(C)C)NC(=O)[C@H](CCCCN)NC(=O)[C@@H]3CCCN3C(=O)[C@H](CCCNC(=N)N)NC1=O)C(=O)N[C@@H](Cc1ccc(O)cc1)C(=O)NCC(=O)NCC(=O)N[C@@H](Cc1ccccc1)C(=O)N[C@@H](CC(C)C)C(=O)N[C@@H](CCCNC(=N)N)C(=O)N[C@@H](CCCNC(=N)N)C(=O)N2 [helianorphin-19] (cyclo(CIRPKLKCYGGFLRR); disulfide 1-8)	108 ± 11%	–	β-arrestin-2 recruitment Emax [4]: 41.1 ± 3.7% and 41%; rotarod performance (latency to fall) [5]: did not impair rotarod performance
Oc1ccc2c3c1O[C@H]1c4[nH]c5c(c4C[C@@]4(O)[C@@H](C2)N(CC2CC2)CC[C@]314)C[C@@]1(O)[C@H]2Cc3ccc(O)c4c3[C@@]1(CCN2CC1CC1)[C@H]5O4 [nor-BNI, norbinaltorphimine]	–	–	effect on helianorphin-19-induced inhibition of colonic nociceptor mechanosensitivity ([6]; 0.1 μM nor-BNI plus 1 μM helianorphin-19): prevented helianorphin-19-induced inhibition of colonic nociceptor mechanosensitivity; also recorded: did block helianorphin-19 (1 μM)-induced inhibition of colonic nociceptor action potential firing; colonic nociceptor mechanosensitivity, antagonist alone ([6]; 0.1 μM, 5 min pre-incubation): did not affect CVH colonic nociceptor responses to mechanical stimuli; also recorded: did not affect nociceptor mechanosensitivity
